# ChEMBL document CHEMBL5036317, “Identification of Unique Quinazolone Thiazoles as Novel Structural Scaffolds for Potential Gram-Negative Bacterial Conquerors” (J Med Chem, 2021)
# Active and inactive are the calls of the source. The rule behind the calls is not given here.
# Experiments:
# Staphylococcus aureus [1] = test: Antibacterial activity against methicillin-resistant Staphylococcus aureus assessed as inhibition of bacterial growth measured after 24 hrs by two-fold serial dilution method; format: functional
# Enterococcus faecalis = test: Antibacterial activity against Enterococcus faecalis assessed as inhibition of bacterial growth measured after 24 hrs by two-fold serial dilution method; format: functional
# Staphylococcus aureus [2] = test: Antibacterial activity against Staphylococcus aureus assessed as inhibition of bacterial growth measured after 24 hrs by two-fold serial dilution method; format: functional
# Staphylococcus aureus [3] = test: Antibacterial activity against Staphylococcus aureus ATCC 25923 assessed as inhibition of bacterial growth measured after 24 hrs by two-fold serial dilution method; format: functional
# Staphylococcus aureus [4] = test: Antibacterial activity against Staphylococcus aureus ATCC 29213 assessed as inhibition of bacterial growth measured after 24 hrs by two-fold serial dilution method; format: functional
# Klebsiella pneumoniae = test: Antibacterial activity against Klebsiella pneumoniae assessed as inhibition of bacterial growth measured after 24 hrs by two-fold serial dilution method; format: functional
# Escherichia coli [5] = test: Antibacterial activity against Escherichia coli assessed as inhibition of bacterial growth measured after 24 hrs by two-fold serial dilution method; format: functional
# Pseudomonas aeruginosa [6] = test: Antibacterial activity against Pseudomonas aeruginosa assessed as inhibition of bacterial growth measured after 24 hrs by two-fold serial dilution method; format: functional
# Acinetobacter baumannii = test: Antibacterial activity against Acinetobacter baumanii assessed as inhibition of bacterial growth measured after 24 hrs by two-fold serial dilution method; format: functional
# Pseudomonas aeruginosa [7] = test: Antibacterial activity against Pseudomonas aeruginosa ATCC 27853 assessed as inhibition of bacterial growth measured after 24 hrs by two-fold serial dilution method; format: functional
# Escherichia coli [8] = test: Antibacterial activity against Escherichia coli ATCC 25922 assessed as inhibition of bacterial growth measured after 24 hrs by two-fold serial dilution method; format: functional
# [9] = Haemolytic activity in human erythrocytes incubated for 2 hrs; format: ADME, cell-based, Erythrocyte
# Escherichia coli [10] = test: Antibiofilm activity against Escherichia coli assessed as reduction in biofilm biomass at 0 to 6 times MIC measured after 24 hrs by crystal violet staining based assay; format: functional, organism-based
# Pseudomonas aeruginosa [11] = test: Antibiofilm activity against Pseudomonas aeruginosa assessed as reduction in biofilm biomass at 0 to 6 times MIC measured after 24 hrs by crystal violet staining based assay; format: functional, organism-based
# Escherichia coli [12] = test: Induction of ROS generation in Escherichia coli measured after 6 hrs by DCFH-DA staining based assay; format: functional, organism-based
# Pseudomonas aeruginosa [13] = test: Induction of ROS generation in Pseudomonas aeruginosa measured after 6 hrs by DCFH-DA staining based assay; format: functional, organism-based
# Cell membrane [14] = test: Induction of cytoplasmic membrane depolarization in Escherichia coli assessed as increase in fluorescence intensity at 0 to 6 times MIC by DiSC3-5 dye based fluorescence assay; format: subcellular
# Cell membrane [15] = test: Induction of cytoplasmic membrane depolarization in Pseudomonas aeruginosa assessed as increase in fluorescence intensity at 0 to 6 times MIC by DiSC3-5 dye based fluorescence assay; format: subcellular
# Cell membrane [16] = test: Induction of outer membrane permeabilization in Escherichia coli assessed as increase in NPN uptake by measuring increase in fluorescence intensity incubated for 5 mins by NPN-dye based fluorescence analysis
# Cell membrane [17] = test: Induction of outer membrane permeabilization in Pseudomonas aeruginosa assessed as increase in NPN uptake by measuring increase in fluorescence intensity incubated for 5 mins by NPN-dye based fluorescence analysis
# Cell membrane [18] = test: Induction of inner membrane permeabilization in Escherichia coli assessed as increase in PI uptake by measuring increase in fluorescence intensity incubated for 30 mins by propidium iodide staining based fluorescence analysis
# Cell membrane [19] = test: Induction of inner membrane permeabilization in Pseudomonas aeruginosa assessed as increase in PI uptake by measuring increase in fluorescence intensity incubated for 30 mins by propidium iodide staining based fluorescence analysis
# Cell membrane [20] = test: Induction of cell membrane disruption in Escherichia coli assessed as increase in protein leakage at 1 to 6 times MIC measured after 6 hrs by Bradford assay
# Cell membrane [21] = test: Induction of cell membrane disruption in Pseudomonas aeruginosa assessed as increase in protein leakage at 1 to 6 times MIC measured after 6 hrs by Bradford assay
# Escherichia coli [22] = test: Antibacterial activity against Escherichia coli assessed as reduction in metabolic activity at 1 to 6 times MIC measured after 6 hrs by alamar blue assay; format: functional, organism-based
# Pseudomonas aeruginosa [23] = test: Antibacterial activity against Pseudomonas aeruginosa assessed as reduction in metabolic activity at 1 to 6 times MIC measured after 6 hrs by alamar blue assay; format: functional, organism-based
# Cell membrane [24] = test: Induction of cell membrane disruption in Escherichia coli assessed as reduction in LDH activity at 1 to 4 times MIC measured after 6 hrs; format: subcellular
# Cell membrane [25] = test: Induction of cell membrane disruption in Pseudomonas aeruginosa assessed as reduction in LDH activity at 1 to 4 times MIC measured after 6 hrs; format: subcellular
# Escherichia coli [26] = test: Antibacterial activity against Escherichia coli assessed as drug resistance treated for 16 serial passages and measured every 24 hrs; format: functional, organism-based
# Pseudomonas aeruginosa [27] = test: Antibacterial activity against Pseudomonas aeruginosa assessed as drug resistance treated for 16 serial passages and measured every 24 hrs; format: functional, organism-based
# Calf thymus DNA [28] = test: Binding affinity to calf thymus DNA assessed as assessed as compound-DNA complex formation by measuring hypochromic shift by UV-visible absorption spectrophotometric method; format: tissue-based; conditions: Bos taurus
# Calf thymus DNA [29] = test: Binding affinity to calf thymus DNA assessed as reduction in acridine orange-DNA complex formation by competitive binding assay; conditions: Bos taurus
smiles,measurement,setting,value
O=C(/C(=C/c1ccc[nH]1)n1cnc2cc(Cl)ccc2c1=O)c1nccs1,MIC,Staphylococcus aureus [1],512 µg/mL
same,MIC,Enterococcus faecalis,512 µg/mL
same,MIC,Staphylococcus aureus [2],512 µg/mL
same,MIC,Staphylococcus aureus [3],512 µg/mL
same,MIC,Staphylococcus aureus [4],2 µg/mL
same,MIC,Klebsiella pneumoniae,256 µg/mL
same,MIC,Escherichia coli [5],256 µg/mL
same,MIC,Pseudomonas aeruginosa [6],256 µg/mL
same,MIC,Acinetobacter baumannii,64 µg/mL
same,MIC,Pseudomonas aeruginosa [7],256 µg/mL
same,MIC,Escherichia coli [8],64 µg/mL
same,HC50 at 2 h,[9],203 µg/mL
O=C(/C(=C/c1c[nH]c2cc(Cl)ccc12)n1cnc2cc(Cl)ccc2c1=O)c1nccs1,MIC,Staphylococcus aureus [1],32 µg/mL
same,MIC,Enterococcus faecalis,2 µg/mL
same,MIC,Staphylococcus aureus [2],512 µg/mL
same,MIC,Staphylococcus aureus [3],2 µg/mL
same,MIC,Staphylococcus aureus [4],2 µg/mL
same,MIC,Klebsiella pneumoniae,64 µg/mL
same,MIC,Escherichia coli [5],64 µg/mL
same,MIC,Pseudomonas aeruginosa [6],256 µg/mL
same,MIC,Acinetobacter baumannii,512 µg/mL
same,MIC,Pseudomonas aeruginosa [7],64 µg/mL
same,MIC,Escherichia coli [8],2 µg/mL
same,HC50 at 2 h,[9],> 250 µg/mL
O=C(/C(=C/c1ccco1)n1cnc2cc(Cl)ccc2c1=O)c1nccs1,MIC,Staphylococcus aureus [1],32 µg/mL
same,MIC,Enterococcus faecalis,8 µg/mL
same,MIC,Staphylococcus aureus [2],64 µg/mL
same,MIC,Staphylococcus aureus [3],8 µg/mL
same,MIC,Staphylococcus aureus [4],8 µg/mL
same,MIC,Klebsiella pneumoniae,64 µg/mL
same,MIC,Escherichia coli [5],128 µg/mL
same,MIC,Pseudomonas aeruginosa [6],64 µg/mL
same,MIC,Acinetobacter baumannii,16 µg/mL
same,MIC,Pseudomonas aeruginosa [7],32 µg/mL
same,MIC,Escherichia coli [8],16 µg/mL
same,HC50 at 2 h,[9],> 250 µg/mL
O=C(/C(=C/c1ccc(Cl)cc1Cl)n1cnc2cc(Cl)ccc2c1=O)c1nccs1,MIC,Staphylococcus aureus [1],8 µg/mL
same,MIC,Enterococcus faecalis,8 µg/mL
same,MIC,Staphylococcus aureus [2],32 µg/mL
same,MIC,Staphylococcus aureus [3],1 µg/mL
same,MIC,Staphylococcus aureus [4],2 µg/mL
same,MIC,Klebsiella pneumoniae,1 µg/mL
same,MIC,Escherichia coli [5],2 µg/mL
same,MIC,Pseudomonas aeruginosa [6],8 µg/mL
same,MIC,Acinetobacter baumannii,16 µg/mL
same,MIC,Pseudomonas aeruginosa [7],1 µg/mL
same,MIC,Escherichia coli [8],2 µg/mL
same,HC50 at 2 h,[9],176 µg/mL
O=C(/C(=C/c1ccc(F)cc1)n1cnc2cc(Cl)ccc2c1=O)c1nccs1,MIC,Staphylococcus aureus [1],4 µg/mL
same,MIC,Enterococcus faecalis,4 µg/mL
same,MIC,Staphylococcus aureus [2],8 µg/mL
same,MIC,Staphylococcus aureus [3],4 µg/mL
same,MIC,Staphylococcus aureus [4],2 µg/mL
same,MIC,Klebsiella pneumoniae,512 µg/mL
same,MIC,Escherichia coli [5],16 µg/mL
same,MIC,Pseudomonas aeruginosa [6],2 µg/mL
same,MIC,Acinetobacter baumannii,256 µg/mL
same,MIC,Pseudomonas aeruginosa [7],2 µg/mL
same,MIC,Escherichia coli [8],4 µg/mL
same,HC50 at 2 h,[9],> 250 µg/mL
O=C(/C(=C/c1ccc2ccccc2c1)n1cnc2cc(Cl)ccc2c1=O)c1nccs1,MIC,Staphylococcus aureus [1],4 µg/mL
same,MIC,Enterococcus faecalis,16 µg/mL
same,MIC,Staphylococcus aureus [2],4 µg/mL
same,MIC,Staphylococcus aureus [3],4 µg/mL
same,MIC,Staphylococcus aureus [4],16 µg/mL
same,MIC,Klebsiella pneumoniae,32 µg/mL
same,MIC,Escherichia coli [5],32 µg/mL
same,MIC,Pseudomonas aeruginosa [6],4 µg/mL
same,MIC,Acinetobacter baumannii,16 µg/mL
same,MIC,Pseudomonas aeruginosa [7],4 µg/mL
same,MIC,Escherichia coli [8],4 µg/mL
same,HC50 at 2 h,[9],192 µg/mL
O=C(/C(=C/c1ccc(C(F)(F)F)cc1)n1cnc2cc(F)ccc2c1=O)c1nccs1,MIC,Staphylococcus aureus [1],8 µg/mL
same,MIC,Enterococcus faecalis,4 µg/mL
same,MIC,Staphylococcus aureus [2],16 µg/mL
same,MIC,Staphylococcus aureus [3],2 µg/mL
same,MIC,Staphylococcus aureus [4],4 µg/mL
same,MIC,Klebsiella pneumoniae,2 µg/mL
same,MIC,Escherichia coli [5],8 µg/mL
same,MIC,Pseudomonas aeruginosa [6],16 µg/mL
same,MIC,Acinetobacter baumannii,1 µg/mL
same,MIC,Pseudomonas aeruginosa [7],4 µg/mL
same,MIC,Escherichia coli [8],4 µg/mL
same,HC50 at 2 h,[9],> 250 µg/mL
O=C(/C(=C/c1ccc(C(F)(F)F)cc1)n1cnc2cc(Cl)ccc2c1=O)c1nccs1,MIC,Staphylococcus aureus [1],4 µg/mL
same,MIC,Enterococcus faecalis,2 µg/mL
same,MIC,Staphylococcus aureus [2],32 µg/mL
same,MIC,Staphylococcus aureus [3],2 µg/mL
same,MIC,Staphylococcus aureus [4],1 µg/mL
same,MIC,Klebsiella pneumoniae,1 µg/mL
same,MIC,Escherichia coli [5],1 µg/mL
same,MIC,Pseudomonas aeruginosa [6],1 µg/mL
same,MIC,Acinetobacter baumannii,8 µg/mL
same,MIC,Pseudomonas aeruginosa [7],1 µg/mL
same,MIC,Escherichia coli [8],2 µg/mL
same,HC50 at 2 h,[9],> 250 µg/mL
same,Activity,Escherichia coli [10],Active
same,Activity,Pseudomonas aeruginosa [11],Active
same,Activity,Escherichia coli [12],Dose-Dependent Effect
same,Activity,Pseudomonas aeruginosa [13],Dose-Dependent Effect
same,Activity,Cell membrane [14],Active
same,Activity,Cell membrane [15],Active
same,Activity,Cell membrane [16],Dose-Dependent Effect
same,Activity,Cell membrane [17],Dose-Dependent Effect
same,Activity,Cell membrane [18],Dose-Dependent Effect
same,Activity,Cell membrane [19],Dose-Dependent Effect
same,Activity,Cell membrane [20],Active
same,Activity,Cell membrane [21],Active
same,Activity,Escherichia coli [22],Active
same,Activity,Pseudomonas aeruginosa [23],Active
same,Activity,Cell membrane [24],Active
same,Activity,Cell membrane [25],Active
same,Activity,Escherichia coli [26],inactive
same,Activity,Pseudomonas aeruginosa [27],inactive
same,Activity,Calf thymus DNA [28],Active
same,Activity,Calf thymus DNA [29],Active
